Converted amounts (≈) assume the structure as drawn. “And” between values parts separate entries of the source, which are not always exact repeats. Equal entries are not always repeated. Structures can show the parent of a compound that is named as a salt. Where two headings read alike, the source gives them in different places.
Tests used:
[1] = solubility in DMSO and H2O; type: physicochemical; details: for water-solubility (in words): comparison
[2] = tested on: primary human erythroid cells; assay: AlamarBlue cell viability / proliferation assay; details: 3 days
γ globin gene = γ globin gene induction by relative quantitative RT-PCR; type: cell-based, human; details: for γ globin induction (IC50): Table 3, γ globin mRNA induction fold at the compound's IC50, 3 days; for EC (μM) induction of HU IC50 (2.3 fold): concentration inducing γ globin gene expression 2.3-fold, primary human erythroid cells
Description: (§1) After 3 days of drug-treatment, the total RNA was extracted by RNA Spin mini kit (Ge-Healthcare) and reverse-transcription was performed by using superscript II (Invitrogen) followed the manufactors instruction. Quantitative PCR was performed on LightCycler with using STBR green master mix followed the manufactors instruction (Roche). The absolute quantitative RT-PCR was calculated by the standard curve with supplying a known copy number of plasmids. The relative quantitative RT-PCR was normalized to the expression levels of the β-actin and compared to the mock control.
To search for new agents, which are capable of inducing the expression of γ globin, a series of naphthalimide derivatives with various substituent(s) on the naphthalene ring and the heterocyclic N-atom (A1-A14, B1-B4, C1-C5, D1, and E1-E3, FIG. 2) were synthesized. These derivatives were subjected to evaluating the γ globin induction abilities in differentiated peripheral blood mononuclear cells (PBMCs). The PBMCs isolated from the peripheral blood of donors were expanded and differentiated for a total of 14 days in a two-phase liquid culture. The resulted primary erythoid cells were then treated with different dosages of naphthalimide derivatives individually for another 3 days. The expression levels of the endogenous γ globin gene were estimated by relative quantitative RT-PCR and the proliferation rates of these cells were examined by AlamarBlue cell viability assay. […]; 2-4.5-folds induction of the γ globin gene expression in the compounds-treated cells (FIG. 3).

ε globin = assay: absolute quantitative RT-PCR, proportion of ε globin mRNA; type: cell-based; details: primary human erythroid cells, at IC50, 3 days; mock 0.0%
Description: as §1
(§2) To evaluate the specificity of S51021, SS-2394, HU, and NaB in mediating globin genes activation, the amounts of individual P3-liked globin mRNAs were measured by absolute quantitative RT-PCR.
(§3) The primary human erythroid cells were treated with HU (145.9 μM), NaB (221.6 μM), S51021 (21.8 μM) or SS2394 (2.3 μM) for 3 days, and the expression levels of each globin mRNA were estimated by absolute quantitative RT-PCR analysis. The proportions of individual 3-like globin chains among the total 3-like globin mRNA are shown. Data are presented as the mean±SEM, N=3.

β globin = assay: absolute quantitative RT-PCR, proportion of β globin mRNA; type: cell-based; details: primary human erythroid cells, at IC50, 3 days; mock 88.8%; listed as SS-2394, hydrochloride
Description: as §1, §2, §3

[3] = stability observed during biological evaluation; type: physicochemical; details: deaminated or converted into C6-hydroxy derivative
Text: To optimize the biological activity and reduce the cytotoxicity of SS-2394 by structural modification, the core structure of naphthalimide (I) was modified by alternating the carbonyl function of benzo[de]isoquinoline-1,3(2H)-dione; reducing the carbonyl function to hydroxyl derivatives (II), which can be further converted into dehydroxylated derivatives III and IV (Scheme 1). During biological evaluation of SS-2394, it was observed that the C6-amino function in SS-2394 was unstable and can be deaminated or converted into the corresponding C6-hydroxy derivatives. Therefore, various substituent R to the C6 of benzo[de]isoquinolin ring were introduced. The substituent R can be H, NH2, NHCOCH3, NHR′, NR′2; wherein R′ can be a C1 to C5 alkyl group. The new compounds bear a N,N-dimethylaminoethyl hydrophilic side chain, which can form acid salts with various inorganic acids or organic acids. Thus, the compounds are water soluble compounds and are suitable for biological application.

δ globin = assay: absolute quantitative RT-PCR, proportion of δ globin mRNA; type: cell-based; details: primary human erythroid cells, at IC50, 3 days; mock 3.3%
Description: as §1, §2, §3

[4] = water, H2O, read-out: solubility H2O
[5] = Table 1a, concentration reducing proliferation rate of primary human erythroid cells by 50%
[6] = Table 3, primary human erythroid cells, proliferation reduced by 50%

| Compound | water-solubility (in words) [1] | solubility [1, 4] [mM] | IC50 [2, 5] [nM] | IC50 [2, 6] [nM] | γ globin induction (IC50) (γ globin gene) [fold] | EC (μM) induction of HU IC50 (2.3 fold) (γ globin gene) [µM] | ε globin proportion of total β-like globin mRNA (ε globin) [%] | β globin proportion of total β-like globin mRNA (β globin) | water-solubility (in words) ([1]; hydrochloride) | water-solubility (in words) ([1]; listed as SS-2394, hydrochloride) | stability of the C6-amino function [3] | γ globin induction (IC50) (γ globin gene; hydrochloride) [fold] | δ globin proportion of total β-like globin mRNA (δ globin) [%] | solubility ([1]; DMSO, organic solvent or mixture, read-out: solubility DMSO) [mM] |
| --- | --- | --- | --- | --- | --- | --- | --- | --- | --- | --- | --- | --- | --- | --- |
| CN(C)CCN1C(=O)c2cccc3cccc(c23)C1=O [Compound B1, N-(2-Dimethylamino-ethyl)-1,8-naphthalimide hydrochloride] | greatly improved water-solubility | > 100 | 10700 | 10700 | 4.1 | 4.7 |  |  |  |  |  |  |  |  |
| CN(C)CCN1C(=O)c2cccc3c(N)ccc(c23)C1=O [Compound E2, N-(2-dimethylamino-ethyl)-4-amino-1,8-naphthalimide hydrochloride] |  | > 100 | 2300 |  |  | 0.8 | 0.5 ± 0.1 | 82.3% and 82.3 ± 1.1% | greatly improved water-solubility | higher water-solubility than that of the parental compound S51021 | unstable | 4.0 | 5.5 ± 0.4 |  |
| Nc1ccc2c3c(cccc13)C(=O)N(c1ccccc1)C2=O [Compound E1, N-Phenyl-4-amino-1,8-naphthalimide] |  |  | 2200 | 300 |  | 2.9 |  |  |  |  |  |  |  | 10 (≈ 2880 µg/mL) |

From US20170290820A1, “METHODS AND COMPOSITIONS FOR TREATING BETA-THALASSEMIA AND SICKLE CELL DISEASE” (Academia Sinica, priority 2013, published 2017)
